Reference: patent US20230374034A1, “NOVEL BICYCLIC COMPOUNDS” (PRISM BIOLAB CO., LTD., priority 2020, published 2023)

These compounds were tested on NICD (Notch intracellular domain) CSL-bla reporter in HeLa cells (assay: Notch assay (CellSensor T-REx NICD CSL-bla HeLa beta-lactamase reporter; Method 1 / Method 2)). Details: Homo sapiens, 10 μM compound, Method 1 (10× compound prepared in assay medium, added to plated cells), read-out: inhibiton (%) at 10 μM.
Format: cell-based
Excerpt: We used the CellSensor T-REx™ NICD CSL-bla HeLa cell line, which was engineered by lentiviral transduction of HeLa cells with a Notch response element driving beta-lactamase reporter gene expression (CSL-bla) along with DOX (doxycycline)-inducible NICD (Notch intracellular domain) constructs. Addition of DOX to these cells allows for regulated NICD transcription factor expression and subsequent beta-lactamase expression.
Specifically, the following protocol was used.
NOTCH ASSAY PROTOCOL (Method 2)
• 1. Add 40 nL/well of working concentration of 1000× compound to 384-well assay plate with Echo. • 2. Plate Cells: 35 μl/well of HeLa/T-REx™ NICD CSL-bla cells at 10^3 cells/well complete medium into 384-well plate. • 3. Add 5 μl 8× Doxycycline in Assay Medium to the treated wells, and 5 μl Assay Medium to the Untreated and cell free control wells. • 4. Incubate the assay plate in a humidified 37° C./5% CO2 incubator for 16-20 hours. • 5. Preparation of 6× LiveBLAzer™-FRET B/G Substrate (CCF4-AM) Mixture according to the manual and cell loading should be done in the absence of direct strong lighting. • 6. Remove assay plate from the humidified 37° C./5% CO2 incubator. Add 8 μl of 6× Substrate Mixture from Step 5 to each well. Cover the plate to protect it from light and evaporation. Incubate at room temperature for 4 hours. • 7. Reading an Assay Plate using the following filter selections:
• 8. Data analysis: Use the assay plate layout to identify the location of the Cell-free wells. These control wells are used for background subtraction. Determine the average emission from the Cell-free wells at both 460 nm (Average Blue Background) and 530 nm(Average Green Background). Subtract the Average Blue Background (data collected at 460 nm) from all of the blue emission data. Subtract the Average Green background (data collected at 530 nm) from all of the green emission data. Calculate the Blue/Green Emission Ratio for each well, by dividing the background-subtracted blue emission values by the background-subtracted green emission values.
Instead of Step 1 to Step 3, the following Step a to Step d can also be performed. The subsequent steps are the same as Method 2, after Step 4 (Method 1). • a. Plate Cells: 32 μL/well of HeLa/T-REx™ NICD CSL-bla cells at 10^3 cells/well complete medium into 384-well plate. • b. Prepare 10× compounds in assay medium. • c. Add 4 μL compounds or 1% DMSO in assay medium to the cells. • d. Add 4 μL 10×Doxycycline in Assay Medium to the treated wells, and 4 μL Assay Medium to the Untreated and cell free control wells.
The results are shown in Table 13 (Table 13-1 to Table 13-2).
Compound `CC(C)C[C@H]1ON(C(=O)OCc2cccc3ccccc23)C2CN(C(C)C)C(=O)[C@H](Cc3ccc(O)cc3)N2C1=O` (stereo partly drawn) [Compound I-14, (3R,6S)-naphthalen-1-ylmethyl 6-(4-hydroxybenzyl)-3-isobutyl-8-isopropyl-4,7-dioxohexahydropyrazino[2,1-c][1,2,4]oxadiazine-1(6H)-carboxylate] has an inhibition at 10 µM of 64.8%.
`CCCC[C@H]1ON(C(=O)OCc2cccc3ccccc23)C2CN(C(C)C)C(=O)[C@H](Cc3ccc(O)cc3)N2C1=O` (stereo partly drawn) [Compound I-12, (3R,6S)-naphthalen-1-ylmethyl 3-butyl-6-(4-hydroxybenzyl)-8-isopropyl-4,7-dioxohexahydropyrazino[2,1-c][1,2,4]oxadiazine-1(6H)-carboxylate] was tested, and the inhibition at 10 µM was 71%.
Work on `CC(C)N1CC2N(C(=O)OCc3cccc4ccccc34)O[C@H](Cc3ccccc3)C(=O)N2[C@@H](Cc2ccc(O)cc2)C1=O` (stereo partly drawn) [Compound I-17, (3R,6S)-naphthalen-1-ylmethyl 3-benzyl-6-(4-hydroxybenzyl)-8-isopropyl-4,7-dioxohexahydropyrazino[2,1-c][1,2,4]oxadiazine-1(6H)-carboxylate] yielded an inhibition at 10 µM of 88%.
With `CC(C)COC(=O)N1O[C@H](C(C)C)C(=O)N2C1CN(Cc1cccc3ccccc13)C(=O)[C@@H]2Cc1ccc(O)cc1` (stereo partly drawn) [Compound I-1, (3R,6S)-isobutyl 6-(4-hydroxybenzyl)-3-isopropyl-8-(naphthalen-1-ylmethyl)-4,7-dioxohexahydropyrazino[2,1-c][1,2,4]oxadiazine-1(6H)-carboxylate] the inhibition at 10 µM was 55.9%.
Compound `CC(C)CCN1CC2N(C(=O)OCc3cccc4ccccc34)O[C@H](Cc3ccccc3)C(=O)N2[C@@H](C)C1=O` (stereo partly drawn) [Compound I-15, (3R,6S)-naphthalen-1-ylmethyl 3-benzyl-8-isopentyl-6-methyl-4,7-dioxohexahydropyrazino[2,1-c][1,2,4]oxadiazine-1(6H)-carboxylate] has an inhibition at 10 µM of 52.6%.

Same assay, conditions: Homo sapiens, 10 μM compound, Method 2 (40 nL of 1000× compound added to plate with Echo), read-out: inhibiton (%) at 10 μM
Compound `CCCCCOC(=O)N1O[C@H](Cc2ccc(O)cc2)C(=O)N2C1CN([C@@H](Cc1ccc(O)cc1)C(=O)NCCc1ccccc1)C(=O)[C@@H]2Cc1ccc(O)cc1` (stereo partly drawn) [Compound I-118, pentyl (3R,6S)-3,6-bis(4-hydroxybenzyl)-8-((S)-3-(4-hydroxyphenyl)-1-oxo-1-(phenethylamino)propan-2-yl)-4,7-dioxohexahydropyrazino[2,1-c][1,2,4]oxadiazine-1(6H)-carboxylate] has an inhibition at 10 µM of 63.3%.
`CC(C)C[C@H]1ON(CCCC2CCN(C(=O)c3ccc(C(=O)c4ccccc4)cc3)CC2)C2CN(C3CCN(C)CC3)C(=O)[C@H](CC(C)C)N2C1=O` (stereo partly drawn) [Compound I-148, (3R,6S)-1-(3-(1-(4-benzoylbenzoyl)piperidin-4-yl)propyl)-3,6-diisobutyl-8-(1-methylpiperidin-4-yl)tetrahydropyrazino[2,1-c][1,2,4]oxadiazine-4,7(3H,6H)-dione] showed an inhibition at 10 µM of 76.6%.
In the case of `COC(=O)N1O[C@H](CC2CCCCC2)C(=O)N2C1CN(CCc1cccc3ccccc13)C(=O)[C@@H]2CCCCN` (stereo partly drawn) [Compound I-42, (3R,6S)-methyl 6-(4-aminobutyl)-3-(cyclohexylmethyl)-8-(2-(naphthalen-1-yl)ethyl)-4,7-dioxohexahydropyrazino[2,1-c][1,2,4]oxadiazine-1(6H)-carboxylate], the inhibition at 10 µM was 95%.
`CC(C)C[C@H]1ON(CCCC2CCN(S(=O)(=O)c3cccnc3)CC2)C2CN(C3CCN(C)CC3)C(=O)[C@H](CC(C)C)N2C1=O` (stereo partly drawn) [Compound I-150, (3R,6S)-3,6-diisobutyl-8-(1-methylpiperidin-4-yl)-1-(3-(1-(pyridin-3-ylsulfonyl)piperidin-4-yl)propyl)tetrahydropyrazino [2,1-c][1,2,4]oxadiazine-4,7(3H,6H)-dione] was tested, and the inhibition at 10 µM was 69.1%.
`CC(C)C[C@H]1ON(CCCC2CCN(S(C)(=O)=O)CC2)C2CN(C3CCN(C)CC3)C(=O)[C@H](CC(C)C)N2C1=O` (stereo partly drawn) [Compound I-151, (3R,6S)-3,6-diisobutyl-8-(1-methylpiperidin-4-yl)-1-(3-(1-(methylsulfonyl)piperidin-4-yl)propyl) tetrahydropyrazino [2,1-c][1,2,4]oxadiazine-4,7(3H,6H)-dione] showed an inhibition at 10 µM of 88%.
With `CC(C)CCNC(=O)[C@H](Cc1ccc(O)cc1)N1CC2N(C(=O)OCCC(C)C)O[C@H](CC(C)C)C(=O)N2[C@@H](Cc2ccc(O)cc2)C1=O` (stereo partly drawn) [Compound I-94, isopentyl (3R,6S)-6-(4-hydroxybenzyl)-8-((S)-3-(4-hydroxyphenyl)-1-(isopentylamino)-1-oxopropan-2-yl)-3-isobutyl-4,7-dioxohexahydropyrazino[2,1-c][1,2,4]oxadiazine-1(6H)-carboxylate] the inhibition at 10 µM was 57.8%.
Compound `CCCCCN1CC2N(C(=O)OCC(C)C)O[C@H](CC3CCCCC3)C(=O)N2[C@@H](CCCCN)C1=O` (stereo partly drawn) [Compound I-34, (3R,6S)-isobutyl 6-(4-aminobutyl)-3-(cyclohexylmethyl)-4,7-dioxo-8-pentylhexahydropyrazino [2,1-c][1,2,4]oxadiazine-1(6H)-carboxylate] has an inhibition at 10 µM of 120%.
For `CCCC[C@@H](C(=O)NCCCC(C)C)N1CC2N(C(=O)OCCc3ccc(O)cc3)O[C@H](Cc3ccccc3)C(=O)N2[C@@H](Cc2ccc(O)cc2)C1=O` (stereo partly drawn) [Compound I-112, 4-hydroxyphenethyl (3R,6S)-3-benzyl-6-(4-hydroxybenzyl)-8-((S)-1-((4-methylpentyl)amino)-1-oxohexan-2-yl)-4,7-dioxohexahydropyrazino[2,1-c][1,2,4]oxadiazine-1(6H)-carboxylate], the inhibition at 10 µM was 54.2%.
For `CCCCCCNC(=O)N1O[C@H](Cc2ccccc2)C(=O)N2C1CN(CCC(c1ccccc1)c1ccccc1)C(=O)[C@@H]2CCC(N)=O` (stereo partly drawn) [Compound I-57, (3R,6S)-6-(3-amino-3-oxopropyl)-3-benzyl-8-(3,3-diphenylpropyl)-N-hexyl-4,7-dioxohexahydropyrazino[2,1-c][1,2,4]oxadiazine-1(6H)-carboxamide], the inhibition at 10 µM was 63.4%.
`CCCC[C@@H](C(=O)NCCc1ccccc1)N1CC2N(C(=O)OCCc3ccc(O)cc3)O[C@H](Cc3ccc(O)cc3)C(=O)N2[C@@H](Cc2ccc(O)cc2)C1=O` (stereo partly drawn) [Compound I-119, 4-hydroxyphenethyl (3R,6S)-3,6-bis(4-hydroxybenzyl)-4,7-dioxo-8-((S)-1-oxo-1-(phenethylamino)hexan-2-yl)hexahydropyrazino[2,1-c][1,2,4]oxadiazine-1(6H)-carboxylate] gave an inhibition at 10 µM of 55.7%.
`CCCC[C@H]1C(=O)N(CCc2cccc3ccccc23)CC2N(C(=O)OCCc3ccc(O)cc3)O[C@H](Cc3ccc(O)cc3)C(=O)N21` (stereo partly drawn) [Compound I-45, (3R,6S)-4-hydroxyphenethyl 6-butyl-3-(4-hydroxybenzyl)-8-(2-(naphthalen-1-yl)ethyl)-4,7-dioxohexahydropyrazino[2,1-c][1,2,4]oxadiazine-1(6H)-carboxylate] was tested, and the inhibition at 10 µM was 54.9%.
With `COC(=O)N1O[C@H](Cc2ccc(O)cc2)C(=O)N2C1CN(CCc1cccc3ccccc13)C(=O)[C@@H]2C` (stereo partly drawn) [Compound I-43, (3R,6S)-methyl 3-(4-hydroxybenzyl)-6-methyl-8-(2-(naphthalen-1-yl)ethyl)-4,7-dioxohexahydropyrazino[2,1-c][1,2,4]oxadiazine-1(6H)-carboxylate] the inhibition at 10 µM was 52.9%.
`CCCC[C@@H](C(=O)NCCC(C)C)N1CC2N(C(=O)OCCc3ccccc3)O[C@H](Cc3ccccc3)C(=O)N2[C@@H](Cc2ccccc2)C1=O` (stereo partly drawn) [Compound I-82, phenethyl (3R,6S)-3,6-dibenzyl-8-((S)-1-(isopentylamino)-1-oxohexan-2-yl)-4,7-dioxohexahydro-pyrazino[2,1-c] [1,2,4]oxadiazine-1(6H)-carboxylate] was tested, and the inhibition at 10 µM was 51.2%.
With `CC(C)CCCNC(=O)[C@H](Cc1ccc(O)cc1)N1CC2N(C(=O)OCCc3ccc(O)cc3)O[C@H](Cc3ccccc3)C(=O)N2[C@@H](Cc2ccc(O)cc2)C1=O` (stereo partly drawn) [Compound I-110, 4-hydroxyphenethyl (3R,6S)-3-benzyl-6-(4-hydroxybenzyl)-8-((S)-3-(4-hydroxyphenyl)-1-((4-methylpentyl)amino)-1-oxopropan-2-yl)-4,7-dioxohexahydropyrazino[2,1-c][1,2,4]oxadiazine-1(6H)-carboxylate] the inhibition at 10 µM was 75.2%.
